Several values for one entry are separate records, joined by “and”; a condition that tells them apart may be missing. Equal values may be shown once. Entries after “also recorded” stand apart in the source; their conditions may differ.
How the values were obtained:
[1] = tested on: MH-22A (mouse hepatocarcinoma) cells; assay: MTT cytotoxicity assay on MH-22A tumor cells, 72 h; assay type: cell-based; conditions: MTT, 72 h; ne = no effect in the tested concentration (up to 100 μg/mL)
Experimental: (§1) Tumor cell lines HT-1080 (human connective tissue fibrosarcoma) and MH-22A (mouse hepatocarcinoma) were used. All of the cells were obtained from the American Type Culture Collection ((ATCC,) Rockville, MD, USA). HT-1080 and MH-22A cells (4 × 10^4 cell/mL) were seeded in 96-well plates in Dulbecco’s modified Eagle’s medium (DMEM) containing 10% fetal bovine serum and cultivated for 72 h at 37 °C, 5% CO2 by exposure to different compounds concentrations (100 μg/mL, 25 μg/mL, 6.25 μg/mL, and 1.56 μg/mL). Cell viability was measured using 3-(4,5-dimethylthiazol-2-yl)-2,5-diphenyl-tetrazolium bromide (MTT) assay. In brief, after incubating with compounds, the culture medium was removed and fresh medium with 0.2 mg/mL MTT was added in each well of the plate. After incubation (3 h, 37 °C, 5% CO2), the medium with MTT was removed, and 200 μL of DMSO was added at once to each sample. The samples were tested at 540 nm on a Tecan multiplate reader Infinite1000 (Tecan Austria GmbH, Salzburg, Austria). The IC50 was calculated using the program Graph Pad Prism® 3.0.

[2] = tested on: HT-1080 (human connective tissue fibrosarcoma) cells; assay: MTT cytotoxicity assay on HT-1080 tumor cells, 72 h; assay type: cell-based; conditions: MTT, 72 h; ne = no effect in the tested concentration (up to 100 μg/mL)
Experimental: as §1

[3] = Self-assembling properties by dynamic light scattering (DLS); assay type: physicochemical; conditions: for PDI ± SD, 1 Set: freshly prepared samples; for Zeta-Pot ± SD: freshly prepared samples in water, 0.5 mg/mL (1–7), 0.25 mg/mL (8–10), 0.1 mg/mL (11); for PDI ± SD, 2 Set: two weeks after the first set, samples stored at r.t.; for Stability of nanoparticles: two weeks of storage at r.t., DLS
Experimental: Samples of compounds for dynamic light scattering (DLS) studies were prepared by thin-film hydration method in an aqueous solution at a concentration of 0.5 mg/mL for compounds 1–7, 0.25 mg/mL for compounds 8–10, and 0.1 mg/mL for compound 11. A corresponding amount of compounds was weighted in a round-bottom flask and dissolved in chloroform; then, the organic solvent was removed in vacuo, and the residue was dried in high vacuo for 1 h. An appropriate amount of deionised water was added to each flask for the preparation of stock solutions with the above-mentioned concentrations. Samples were prepared by sonication using a bath-type sonicator (Cole Parmer Ultrasonic Cleaner 8891CPX (Vernon Hills, IL, USA)). Samples were sonicated for 60 min at 50 °C.
The DLS measurements of the nanoparticles in an aqueous solution were carried out on a Zetasizer Nano ZSP (Malvern Panalytical Ltd., Malvern, UK) instrument with Malvern Instruments Ltd. Software 7.12, using the following specifications—medium: water; refractive index: 1.33; viscosity: 0.8872 cP; temperature: 25 °C; dielectric constant: 78.5; nanoparticles: liposomes; refractive index of materials: 1.60; detection angle: 173°; wavelength: 633 nm. Data were analysed using the multimodal number distribution software that was included with the instrument. The measurements were performed in triplicate in order to check their reproducibility.

[4] = tested on: Klebsiella pneumoniae; assay: Toxicity screen, serial dilution-spot test; assay type: cell-based; conditions: gram negative; 24 h exposure in DI water, 28 °C; 0.0001 = no colonies at 0.001 mM;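 also: last dilution that did not fully inhibit growth with colonies still present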
Experimental: (§2) An estimation of the toxicity of 4-(N-alkylpyridinium)-1,4-DHP derivatives 3, 6, 7, and 9–11 was performed using six prokaryotic (bacteria) and one eukaryotic (yeast) microorganism species according to the procedure elaborated by Suppi et al.. The microorganisms used in the study and their origin were: Bacillus subtilis subsp. spizizenii (ATCC® 6633™*, Microbiologics®, St Cloud, MN, USA), Escherichia coli (ATCC® 8739, Microbiologics®), Klebsiella pneumoniae (Latvian Microorganisms strain collection, LMKK, strain number 535, Riga, Latvia), Micrococcus luteus (LMKK, No. 25), Pseudomonas aeruginosa (NCTC 12924, Biosciences Ltd., Dublin, Ireland), Proteus mirabilis (LMKK, No 590), and Saccharomyces cerevisiae, CEN.PK2 strain [32].
(§3) Bacteria and yeast cultures were cultivated until their exponential growth phase (optical density max 1); then, 100 µL of cell suspension was taken, washed in deionised (DI) water, and added to serially diluted samples of corresponding 4-(N-alkylpyridinium)-1,4-DHPs in DI water. All 1,4-DHPs were tested in five serially diluted concentrations (10 mM, 1 mM, 0.1 mM, 0.01 mM, and 0.001 mM). Test organisms were exposed to 1,4-DHP derivatives in DI water on 96-well microplates (Corning, Corning, NY, USA) at 28 °C for 24 h without shaking in the dark. Then, a 5 µL sample was taken from each well and spotted on yeast extract, bactopeptone, dextrose broth (YPD) (yeast extract 1%, bactopeptone 2%, glucose 2% and agar 2%) plates to test the growth of yeasts and lysogeny broth (LB) (yeast extract 0.5%, bactopeptone 1%, NaCl 0.5% and agar 2%) to test the growth for bacteria. Plates were left in 30 °C for 24 h, and assessed for microbial growth.
(§4) If there were no colonies after incubation with 1,4-DHPs in the last concentration of (0.001 mM), then their boundary concentration was set to 0.0001 mM or 0.1 µM.

[5] = tested on: Saccharomyces cerevisiae, CEN.PK2 strain; assay: Toxicity screen, serial dilution-spot test; assay type: cell-based; conditions: yeast; 24 h exposure in DI water, 28 °C; 0.0001 = no colonies at 0.001 mM;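 also: last dilution that did not fully inhibit growth with colonies still present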
Experimental: as §2, §3, §4

[6] = tested on: Proteus mirabilis; assay: Toxicity screen, serial dilution-spot test; assay type: cell-based; conditions: gram negative; 24 h exposure in DI water, 28 °C; 0.0001 = no colonies at 0.001 mM;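 also: last dilution that did not fully inhibit growth with colonies still present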
Experimental: as §2, §3, §4

[7] = tested on: Pseudomonas aeruginosa; assay: Toxicity screen, serial dilution-spot test; assay type: cell-based; conditions: gram negative; 24 h exposure in DI water, 28 °C; 0.0001 = no colonies at 0.001 mM;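 also: last dilution that did not fully inhibit growth with colonies still present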
Experimental: as §2, §3, §4

[8] = tested on: Bacillus subtilis subsp. spizizenii; assay: Toxicity screen, serial dilution-spot test; assay type: cell-based; conditions: gram positive; 24 h exposure in DI water, 28 °C; 0.0001 = no colonies at 0.001 mM;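 also: last dilution that did not fully inhibit growth with colonies still present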
Experimental: as §2, §3, §4

[9] = tested on: Escherichia coli; assay: Toxicity screen, serial dilution-spot test; assay type: cell-based; conditions: gram negative; 24 h exposure in DI water, 28 °C; 0.0001 = no colonies at 0.001 mM;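 also: last dilution that did not fully inhibit growth with colonies still present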
Experimental: as §2, §3, §4

[10] = tested on: Micrococcus luteus; assay: Toxicity screen, serial dilution-spot test; assay type: cell-based; conditions: gram positive; 24 h exposure in DI water, 28 °C; 0.0001 = no colonies at 0.001 mM;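 also: last dilution that did not fully inhibit growth with colonies still present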
Experimental: as §2, §3, §4

[11] = tested on: six prokaryotic (bacteria) and one eukaryotic (yeast) microorganism species; assay: Toxicity screen, whole panel of microorganisms; assay type: cell-based; conditions: concentrations tested 10 to 0.001 mM
Experimental: as §2, §3, §4

[12] = Determination of critical aggregation concentration (CAC) by DLS; assay type: physicochemical; conditions: aqueous media
Experimental: The critical aggregation concentrations (CAC) of 4-(N-alkylpyridinium)-1,4-DHP derivatives were determined in aqueous media using a Zetasizer Nano S90 (Malvern Panalytical Ltd., Malvern, UK) instrument with Malvern Instruments Ltd. Software according to procedure described by Topel et al. and modified by our group. Briefly, as stock solutions of tested compounds were used, samples were prepared for self-assembling experiments. All of the subsequent samples were prepared starting from the concentrated stock solution, which was subjected to a serial two-fold dilution each time with water. The intensity values of scattered light (kcps) as a function of concentration of amphiphiles were analysed. The scattering intensities detected for amphiphile concentrations below CAC have an approximately constant value corresponding to water. The intensity starts to show a linear increase with concentration at the CAC, since the amount of nanoparticles increases in the solution. The intersection of the best-fit lines drawn through the data points is the preliminary CAC value of the compounds.

Row | SMILES | Cytotoxicity IC50, MH-22A [1] | Cytotoxicity IC50, HT-1080 [2] | PDI ± SD, 1 Set [3] | Zeta-Pot ± SD [3] [mV] | PDI ± SD, 2 Set [3] | Stability of nanoparticles [3] | Boundary concentration, K. pneumoniae [4] [mM] | Boundary concentration, S. cerevisiae [5] [mM] | Boundary concentration, P. mirabilis [6] [mM] | Boundary concentration, P. aeruginosa [7] [mM] | Boundary concentration, B. subtilis [8] [mM] | Boundary concentration, E. coli [9] [mM] | Boundary concentration, M. luteus [10] [mM] | Effect on survival of microorganisms [11] | CAC [12] [µM]
1 | CCOC(=O)C1=C(C)NC(C)=C(C(=O)OCC)C1c1ccc[n+](CC)c1 [Compound 1] | did not demonstrate any cytotoxic effect and ne | did not demonstrate any cytotoxic effect and ne | 0.18 and 0.18 ± 0.01 | −8.43 ± 2.14 | 0.40 and 0.40 ± 0.16 | lost their homogeneity after two weeks of storage; also recorded: weak stability | – | – | – | – | – | – | – | – | –
2 | C#CCN1C(C)=C(C(=O)OCC)C(c2ccc[n+](CC)c2)C(C(=O)OCC)=C1C [Compound 4] | did not demonstrate any cytotoxic effect and ne | did not demonstrate any cytotoxic effect and ne | 0.16 and 0.16 ± 0.02 | −5.47 ± 1.97 | 0.41 and 0.41 ± 0.07 | lost their homogeneity after two weeks of storage; also recorded: weak stability | – | – | – | – | – | – | – | – | –
3 | C#CCN1C(C)=C(C(=O)OCC)C(c2ccc[n+](CCCCCCCCCCCCCCCC)c2)C(C(=O)OCC)=C1C [Compound 11] | – | – | 0.37 and 0.37 ± 0.03 | – | 0.33 and 0.33 ± 0.03 | stable after two weeks of storage; also recorded: confirmed the stability of nanoparticles | 10 | 0.0001 | 0.0001 | 0.01 | 0.0001 | 0.01 | 0.001 | toxic at various degrees | 7.6
